Results from a melting point compilation (Tetko et al.; mined from patent text by program, amines drawn as free bases though some values may be those of a salt).

| SMILES | melting point [°C] |
| --- | --- |
| CCOC(=O)c1ccc(C#CCc2ccc3c(c2)C(C)(C)CCC3(C)C)cc1 | 59 to 60 |
| COc1cc(C=CC=O)ccc1OC(C)c1nc(-c2ccccc2)oc1C (centres undefined) | 152 to 153 |
| O=C(O)c1cc(C(F)(F)F)ccc1OCc1ccccc1 | 94 to 95 |
| CCCCCOc1ccc(-c2ncc(C#N)cn2)cc1 | 98 to 98.1 |
| N#CC1CCN(C(c2ccccc2)(c2ccccc2)c2ccccc2)CC1 | 206 |
| NS(=O)(=O)c1cc2ccncc2o1 | 199 to 201 |
| CCSc1ccc2nc(C(F)(F)F)c(S(N)(=O)=O)n2n1 | 208 to 210 |
| CCc1cccc(C)c1CNc1ccnc2c1nc(C)n2C | 105 to 109 |
| COc1ccc(C(O)COc2ccc(C(=O)O)c(O)c2)cc1C(C)(C)C (centres undefined) | 149 to 150 |
| O=C(O)c1conc1-c1ccc(F)cc1 | 170 to 174 |
| CCOc1ccc([N+](=O)[O-])cc1I | 81 to 83 |
| Cc1cc2c(cc1-c1csc(C=CC(=O)O)c1)C(C)(C)CCC2(C)C | 215 to 220 |
| COc1ccc(C(=O)N(C(=O)c2ccc(OC)cc2)c2nc3ccc(N(C)C)cc3c(NCc3ccco3)c2C#N)cc1 | 143 |
| CNC(=O)NS(=O)(=O)c1cccc2c1OS(=O)(=O)C(C)C2 (centres undefined) | 235 to 238 |
| CCOC(=O)c1cn([C@@H]2C[C@@H]2F)c2cc(F)ccc2c1=O | 227 to 230 |
| c1csc(-c2ccc(C34CCN(CC3)C4)cn2)n1 | 127 to 129 |
| CN(C)C(=O)c1c(F)cccc1I | 86 to 89 |
| COC(=O)c1cc(F)c(-n2c(=O)[nH]n(C)c2=O)cc1F | 156 |
| N#CC1(c2cccs2)C2CC3CC(C2)CC1C3 (centres undefined) | 108 to 110 |
| CC(C)(C)c1cc(NC(=O)Nc2ccc(Oc3ccccc3)cc2)on1 | 182 to 184 |
| CCCc1nc2c(N)nc3cc(-c4cncc(CO)c4)ccc3c2n1CC(C)(C)O | 225 to 226 |
| Cc1nc(-c2ccc(O)cc2)sc1C | 194 to 195 |
| CC(O)c1nnc2n1-c1sc(Cl)cc1C(c1ccccc1Cl)=NC2 (centres undefined) | 118 to 120 |
| Oc1cccc(-c2nn(C3CCCC3)c3c(Cl)cccc23)c1F | 150 to 151 |
| COc1cc(C(=O)NCC(=O)O)ccc1NS(=O)(=O)c1sc2ccc(Cl)cc2c1C | 282 to 285 |

| SMILES | melting point [°C] |
| --- | --- |
| COc1ccc(NC(=O)c2ccccc2Cl)cc1 | 113 to 115 |
| O=C1CSc2cc(-c3cccc([N+](=O)[O-])c3)ccc2N1 | 290 to 292 |
| CC(C)C1(CCc2ccccc2CO)CC(O)=C(Sc2sc3ccccc3c2C(C)(C)C)C(=O)O1 (centres undefined) | 92 to 94 |
| Nc1nc2ccccc2c2c1nc(CN1CCOCC1)n2Cc1ccccc1 | > 300 |
| CCCCCCCCCCCCCCCCCCOc1cc(OCCCOc2ccccc2)cc(C(=O)N(CC(=O)O)CC(=O)O)c1 | 86 to 90 |
| COc1ccnc(CCc2nc3cc(-c4ccoc4)cnc3[nH]2)c1 | 193 to 194 |
| NC1=C2C=NN=C2N(c2ccccc2)CN1c1ccccc1 | 244 to 246 |
| COC(=O)COc1c(Br)cc(-c2c3ccccc3c(Br)c3sc4ccccc4c23)cc1Br | 183 to 184 |
| Cc1cccc(CC(=O)NC(C)C)c1NC(=O)c1cc(C(F)(F)F)nn1-c1ncccc1Cl | 206 to 207 |
| CSc1ccc(C2=C(c3cccs3)C(=O)C(C)(C)O2)cc1 | 113 to 114 |
| COc1ccc(CNc2cc(-c3cc4cc(F)c(F)cc4[nH]3)ccc2OC)cc1 | 173 to 175 |
| OCC1CN(Cc2ccccc2)CCN1Cc1ccccc1 (centres undefined) | 77 |
| CC(C)(C)c1cc(C(=O)Nc2cccc(OCc3cccnc3)c2)ccc1O | 104 to 107 |
| COc1ccc(C=O)cc1OC1CC2CCC1C2 (centres undefined) | 75.5 to 79.5 |
| CC(C)C[C@H](NC(=O)OC1CCCCC1)C(=O)N[C@@H](Cc1ccccc1)C(=O)CSCc1ccco1 | 102 to 103 |
| Cc1cc(C)c(-c2cn(C)c3nc(N4CCCCC4)n(C)c(=O)c23)c(C)c1 | 210 to 212 |
| Cc1cc(-c2cnn3c(C(F)(F)F)cc(-c4ccc(C(F)(F)F)c(F)c4)nc23)cc(C)n1 | 245 |
| C#Cc1ccc(C(=O)OC(C)(C)C)cc1 | 71.5 to 72 |
| Cc1sc(CO)c(C)c1C | 45 to 48 |
| COCOc1ccc(-n2nc(C(F)(F)F)cc2-c2ccc(S(C)(=O)=O)cc2)cc1 | 96 to 97 |
| Nc1ccccc1OCc1ccc2ccccc2n1 | 62 to 64 |
| CCOC(=O)[C@@H](Cc1ccccc1)C[C@H](Cc1ccccc1)C(=O)NCCC(=O)O (relative stereo) | 84 to 86 |
| O=[N+]([O-])c1ccc(Cl)c(N=C2NCCCN2)c1 | 189 to 191 |
| COC(=O)c1cc2cc(NC(=O)c3cc4cc(N)ccc4[nH]3)ccc2[nH]1 | > 350 |
| Nc1ccc(Br)cc1CC(F)(F)F | 100 to 101 |

| SMILES | melting point [°C] |
| --- | --- |
| COc1ccc(CNc2c(Cl)cnn(C)c2=O)cc1 | 94 to 96 |
| O=c1c(-c2ccccc2)cc([N+](=O)[O-])c2n1CCc1ccsc1-2 | 180 to 182 |
| CC(=O)Oc1cccnc1-n1ccnc1S(=O)Cc1ccccc1N1CCOCC1 (centres undefined) | 104 to 107 |
| O=C(Nc1ccc2nc(CN3CCCCC3)ccc2c1)c1ccc(-c2ccccc2)cc1 | 186 to 188 |
| COC(=O)c1ccccc1Nc1cc(C(C)(C)C)c(O)c(C(C)(C)C)c1 | 155 to 158 |
| CN(C)CCCn1cc(C(=O)NCc2ccc(Cl)cc2)c(=O)c2cc(C#CCO)ccc21 | 172 to 175 |
| O=S(=O)(c1ccc(Cl)cc1)N1CCC2(C=Cc3ccccc32)CC1 | 179 to 181 |
| COc1ccc(-c2nc(C(N)=O)cn2-c2ccc(OC)cc2)cc1 | 167 to 169 |
| CSc1cc(C)nc(SC)c1NC(=O)CSc1nc2cccc(C(F)(F)F)c2o1 | 207 to 209 |
| Cc1nc(-c2ccc(Cl)cc2)oc1COC(C)(C)C(=O)O | 166 to 167 |
| CCOC(=O)/C=C(C)/C=C/C=C(C)/C=C/c1c(C)cc(OC(F)(F)F)c(C)c1C | 47 to 49 |
| NC(=O)N(O)C1CCC(c2ccccc2)CC1 (centres undefined) | 161 to 162 |
| CSCC(=O)[C@H](Cc1ccccc1)NC(=O)[C@H](CC(C)C)NC(C)=O | 118 to 120 |
| CCc1nc(N)nc(N)c1N1CCN(Cc2ccccc2)CC1 | 174 to 175 |
| CCOC(=O)C1=C(C)NC(NC(C)=O)=C(C(=O)OCC)C1C (centres undefined) | 105 |
| OCC[Si](c1ccccc1)(c1ccccc1)c1ccccc1 | 96 to 97 |
| Cc1cc(C=O)ccc1-c1ccc(O)cc1 | 94 to 96 |
| COC(=O)Cn1c(=O)[nH][nH]c1=O | 215 to 218 |
| N#Cc1ccc(C(=C2CCCCC2)c2nc[nH]n2)cc1 | 92 to 93 |
| Nc1cc(OCCCl)ccc1F | 42 to 43 |
| CCOP(=O)(CC(N)=S)OCC | 73 to 75 |
| CN1CCC(=C2c3ccccc3Sc3ccc(C(=O)O)cc32)CC1 | 319 to 323 |
| O=C(O)C(=O)c1ccc(OCc2ccccc2)c(Cl)c1 | 134 to 135 |
| CC1(C)CCC(C)(C)c2nc3c(nc21)CCc1c(-c2ccc(C(=O)O)cc2)cn(Cc2cccnc2)c1-3 | 149 to 151 |
